From patent US8071612B2, “6-alkenyl and 6-phenylalkyl substituted 2-quinolinones and 2-quinoxalinones as poly(ADP-ribose) polymerase inhibitors” (Janssen Pharmaceutica, NV, priority 2004, dated 2011) come the findings set out here.

The target in this experiment is T1, PARP-1 enzyme (Homo sapiens, UniProt P09874).
T1 construct: made in house
Kind of experiment: In vitro Scintillation Proximity Assay (SPA) for PARP-1 inhibitory activity. The format is biochemical. The settings on record: nicked DNA activated PARP-1, [3H]-NAD+, biotinylated histones; read-out: In vitro SPA pIC50 (converted). How it is done:
Compounds of the present invention were tested in an in vitro assay based on SPA technology (proprietary to Amersham Pharmacia Biotech).
In principle, the assay relies upon the well established SPA technology for the detection of poly(ADP-ribosyl)ation of biotinylated target proteins, i.e histones. This ribosylation is induced using nicked DNA activated PARP-1 enzyme and [^3H]-nicotinamide adenine dinucleotide ([^3H]-NAD^+) as ADP-ribosyl donor.
As inducer of PARP-1 enzyme activity, nicked DNA was prepared. For this, 25 mg of DNA (supplier: Sigma) was dissolved in 25 ml DNAse buffer (10 mM Tris-HCl, pH 7.4; 0.5 mg/ml Bovine Serum Albumine (BSA); 5 mM MgCl2.6H2O and 1 mM KCl) to which 50 μl DNAse solution (1 mg/ml in 0.15 M NaCl) was added. After an incubation of 90 min. at 37° C., the reaction was terminated by adding 1.45 g NaCl, followed by a further incubation at 58° C. for 15 min. The reaction mixture was cooled on ice and dialysed at 4° C. for respectively 1.5 and 2 hours against 1.5 l of 0.2 M KCl, and twice against 1.5 l of 0.01 M KCl for 1.5 and 2 h respectively. The mixture was aliquoted and stored at −20° C. Histones (1 mg/ml, type II-A, supplier: Sigma) were biotinylated using the biotinylation kit of Amersham and stored aliquoted at −20° C. A stock solution of 100 mg/ml SPA poly(vinyl toluene) (PVT) beads (supplier: Amersham) was made in PBS. A stock solution of [^3]H-NAD^+ was made by adding 120 μl of [^3H]-NAD^+ (0.1 mCi/ml, supplier: NEN) to 6 ml incubation buffer (50 mM Tris/HCl, pH 8; 0.2 mM DTT; 4 mM MgCl2). A solution of 4 mM NAD^+ (supplier: Roche) was made in incubation buffer (from a 100 mM stock solution in water stored at −20° C.). The PARP-1 enzyme was produced using art known techniques, i.e. cloning and expression of the protein starting from human liver cDNA. Information concerning the used protein sequence of the PARP-1 enzyme including literature references can be found in the Swiss-Prot database under primary accession number P09874. Biotinylated histones and PVT-SPA beads were mixed and pre-incubated for 30 min. at room temperature. PARP-1 enzyme (concentration was lot dependent) was mixed with the nicked DNA and the mixture was pre-incubated for 30 min. at 4° C. Equal parts of this histones/PVT-SPA beads solution and PARP-1 enzyme/DNA solution were mixed and 75 μl of this mixture together with 1 μl of compound in DMSO and 25 μl of [^3H]-NAD^+ was added per well into a 96-well microtiterplate. The final concentrations in the incubation mixture were 2 μg/ml for the biotinylated histones, 2 mg/ml for the PVT-SPA beads, 2 μg/ml for the nicked DNA and between 5-10 μg/ml for the PARP-1 enzyme. After incubation of the mixture for 15 min. at room temperature, the reaction was terminated by adding 100 μl of 4 mM NAD^+ in incubation buffer (final concentration 2 mM) and plates were mixed.
The beads were allowed to sediment for at least 15 min. and plates transferred to a TopCountNXT™ (Packard) for scintillation counting, values were expressed as counts per minute (cpm). For each experiment, controls (containing PARP-1 enzyme and DMSO without compound), a blank incubation (containing DMSO but no PARP-1 enzyme or compound) and samples (containing PARP-1 enzyme and compound dissolved in DMSO) were run in parallel. All compounds tested were dissolved and eventually further diluted in DMSO. In first instance, compounds were tested at a concentration of 10^−5 M or 10^−6M. […] In each test, the blank value was subtracted from both the control and the sample values. The control sample represented maximal PARP-1 enzyme activity. For each sample, the amount of cpm was expressed as a percentage of the mean cpm value of the controls. When appropriate, IC50-values (concentration of the drug, needed to reduce the PARP-1 enzyme activity to 50% of the control) were computed using linear interpolation between the experimental points just above and below the 50% level. […]

T1 sequence (P09874 whole entry): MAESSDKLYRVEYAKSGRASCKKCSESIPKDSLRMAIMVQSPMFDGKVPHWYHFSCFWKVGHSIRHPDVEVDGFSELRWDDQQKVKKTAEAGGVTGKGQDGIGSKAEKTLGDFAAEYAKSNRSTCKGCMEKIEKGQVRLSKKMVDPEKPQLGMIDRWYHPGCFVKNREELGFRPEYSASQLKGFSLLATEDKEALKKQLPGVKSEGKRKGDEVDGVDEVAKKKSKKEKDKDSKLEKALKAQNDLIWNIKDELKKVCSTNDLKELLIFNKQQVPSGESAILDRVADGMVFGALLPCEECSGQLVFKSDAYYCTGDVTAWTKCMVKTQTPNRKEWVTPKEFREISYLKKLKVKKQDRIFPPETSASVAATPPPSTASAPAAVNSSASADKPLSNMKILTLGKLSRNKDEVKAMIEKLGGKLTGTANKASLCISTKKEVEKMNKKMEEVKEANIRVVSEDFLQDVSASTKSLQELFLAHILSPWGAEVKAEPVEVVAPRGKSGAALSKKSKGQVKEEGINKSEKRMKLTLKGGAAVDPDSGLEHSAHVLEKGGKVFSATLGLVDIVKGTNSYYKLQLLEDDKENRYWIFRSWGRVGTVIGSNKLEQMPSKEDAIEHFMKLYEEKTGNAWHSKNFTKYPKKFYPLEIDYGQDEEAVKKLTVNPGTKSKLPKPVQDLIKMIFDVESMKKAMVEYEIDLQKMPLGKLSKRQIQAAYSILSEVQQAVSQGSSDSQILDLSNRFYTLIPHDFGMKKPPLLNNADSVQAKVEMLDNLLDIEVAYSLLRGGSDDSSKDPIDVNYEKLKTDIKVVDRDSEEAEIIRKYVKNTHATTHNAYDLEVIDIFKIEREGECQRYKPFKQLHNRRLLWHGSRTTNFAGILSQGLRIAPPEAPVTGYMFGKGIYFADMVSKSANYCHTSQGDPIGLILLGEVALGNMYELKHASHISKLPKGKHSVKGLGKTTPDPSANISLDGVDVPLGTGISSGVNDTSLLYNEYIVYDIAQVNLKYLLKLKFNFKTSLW

Take `CCc1cc2cc(C(c3ccc4c(c3)OCCO4)C3CC[N+](C/C=C/c4ccccc4)(C/C=C/c4ccccc4)CC3)ccc2[nH]c1=O` (stereo not drawn) [Compound 15]: the IC50 was 0.119 µM.
For `CCc1cc2cc(C(c3ccc4c(c3)OCCO4)N3CCC(CCN4CCCCC4)CC3)ccc2[nH]c1=O` (stereo not drawn) [Compound 31] the value was 0.0213 µM.
As for `O=c1[nH]c2ccc(C(NCCCN3CCCCC3)c3cccc(C(F)(F)F)c3)cc2c2ccccc12` (stereo not drawn) [Compound 32], the IC50 is 0.0746 µM.
Regarding `CCc1cc2cc(C(c3ccc4c(c3)OCCO4)N3CCC(NCCOC)CC3)ccc2[nH]c1=O` (stereo not drawn) [Compound 33], the IC50 is 0.0257 µM.
Regarding `CCc1cc2cc(C(c3cccc(OC(F)(F)F)c3)N3CCC(NCCOC)CC3)ccc2[nH]c1=O` (stereo not drawn) [Compound 34], the IC50 is 0.525 µM.
`CCc1cc2cc(C(c3ccc(C(F)(F)F)cc3F)N3CCC(NCCOC)CC3)ccc2[nH]c1=O` (stereo not drawn) [Compound 35]: the IC50 was 0.802 µM.
In the case of `CCc1cc2cc(C(c3ccc(OCCCN(C)C)cc3)N3CCC(NCCOC)CC3)ccc2[nH]c1=O` (stereo not drawn) [Compound 36], the IC50 was 0.299 µM.
Take `CCc1cc2cc(C(c3ccc4c(c3)OCCO4)N3CCN(CCN4CCCCC4)CC3)ccc2[nH]c1=O` (stereo not drawn) [Compound 40]: the IC50 was 0.0237 µM.
With `CCc1cc2cc(C(c3ccc4c(c3)OCCO4)N3CCN(CC4CCCCC4)CC3)ccc2[nH]c1=O` (stereo not drawn) [Compound 41], the IC50 was 0.122 µM.
For `CCc1cc2cc(C(c3ccc4c(c3)OCO4)n3nc(C4CCNCC4)c4ccc(F)cc43)ccc2[nH]c1=O` (stereo not drawn) [Compound 42] the value was 0.948 µM; for `CCc1cc2cc(C(c3ccc4c(c3)OCCO4)N3CCN(CCN4CCCCCC4)CC3)ccc2[nH]c1=O` (stereo not drawn) [Compound 43], 0.0212 µM; for `CCc1cc2cc(C(NCCN3CCC(C(=O)c4ccc(F)cc4)CC3)c3ccc4c(c3)OCCO4)ccc2[nH]c1=O` (stereo not drawn) [Compound 44], 0.0923 µM.
As to `O=c1[nH]c2ccc(C(NCCN3CCC(c4n[nH]c5cc(F)ccc45)CC3)c3ccc4c(c3)OCCO4)cc2c2ccccc12` (stereo not drawn) [Compound 45], the IC50 was 0.0456 µM.
Turning to `CCc1cc2cc(C(c3ccc4c(c3)OCCO4)N3CCC(c4n[nH]c5cc(F)ccc45)CC3)ccc2[nH]c1=O` (stereo not drawn) [Compound 46], the IC50 was 0.405 µM.
With `O=c1[nH]c2ccc(C(NCCN3CCC(c4n[nH]c5cc(F)ccc45)CC3)c3cccc(C(F)(F)F)c3)cc2c2ccccc12` (stereo not drawn) [Compound 47], the IC50 is 0.516 µM.
With `COCCNC1CCN(C(c2cccc(C(F)(F)F)c2)c2ccc3[nH]c(=O)c4ccccc4c3c2)CC1` (stereo not drawn) [Compound 48], the IC50 was 0.19 µM.
`CN(CCCNC(c1cccc(C(F)(F)F)c1)c1ccc2[nH]c(=O)c3ccccc3c2c1)Cc1ccccc1` (stereo not drawn) [Compound 49]: the IC50 was 0.406 µM.
As to `CCc1nc2cc(C(NCCN3CCC(C(=O)c4ccc(F)cc4)CC3)c3ccccc3)ccc2[nH]c1=O` (stereo not drawn) [Compound 50], the IC50 is 0.678 µM.
For `CCc1nc2cc(C(NCCCN3CCCCC3)c3ccccc3)ccc2[nH]c1=O` (stereo not drawn) [Compound 51], the IC50 was 0.459 µM.
Turning to `CCc1cc2cc(C(NCCCN3CCCCC3)c3ccc4c(c3)OCCO4)ccc2[nH]c1=O` (stereo not drawn) [Compound 52], the IC50 was 0.0546 µM.
As for `CCc1cc2cc(C(NC3CCCN(Cc4ccccc4)C3)c3ccc4c(c3)OCCO4)ccc2[nH]c1=O` (stereo not drawn) [Compound 53], the IC50 is 0.152 µM.
In the case of `CCc1cc2cc(C(c3ccc4c(c3)OCO4)N3CCC(NCCOC)CC3)ccc2[nH]c1=O` (stereo not drawn) [Compound 54], the IC50 was 0.101 µM.
Take `CCc1cc2cc(C(OCCN(C)C)c3ccc4c(c3)OCCO4)ccc2[nH]c1=O` (stereo not drawn) [Compound 55]: the IC50 was 0.0184 µM.
Consider `CCc1nc2cc(C(NCCCN(C)Cc3ccccc3)c3ccccc3)ccc2[nH]c1=O` (stereo not drawn) [Compound 56], for which the IC50 was 0.511 µM.
For `CCc1cc2cc(C(NCCCN(C)Cc3ccccc3)c3ccc4c(c3)OCCO4)ccc2[nH]c1=O` (stereo not drawn) [Compound 57], the IC50 was 0.0336 µM.
The same measure for `CCc1nc2cc(C(c3ccccc3)N3CCC(NCCOC)CC3)ccc2[nH]c1=O` (stereo not drawn) [Compound 58]: 0.582 µM; for `CCc1cc2cc(C(c3cccc(F)c3)N3CCC(NCCOC)CC3)ccc2[nH]c1=O` (stereo not drawn) [Compound 59]: 0.217 µM; for `CCc1cc2cc(C(c3ccc(Cl)cc3)N3CCN(C)CC3)ccc2[nH]c1=O` (stereo not drawn) [Compound 60]: 0.296 µM.
Take `CCc1cc2cc(C(c3ccc4ccccc4c3)N3CCC(NCCOC)CC3)ccc2[nH]c1=O` (stereo not drawn) [Compound 61]: the IC50 is 0.276 µM.
For the compound `CCc1cc2cc(C(c3ccccc3F)N3CCC(NCCOC)CC3)ccc2[nH]c1=O` (stereo not drawn) [Compound 62], the IC50 was 0.312 µM.
The same measure for `CCc1cc2cc(C(c3ccc(Cl)c(F)c3)N3CCC(NCCOC)CC3)ccc2[nH]c1=O` (stereo not drawn) [Compound 63]: 0.361 µM.
In the case of `CCc1cc2cc(C(c3ccc(C)cc3C)N3CCC(NCCOC)CC3)ccc2[nH]c1=O` (stereo not drawn) [Compound 64], the IC50 is 0.532 µM.
For `CCc1cc2cc(C(c3ccc(N(C)C)cc3)N3CCC(NCCOC)CC3)ccc2[nH]c1=O` (stereo not drawn) [Compound 65] the value was 0.292 µM; for `CCc1cc2cc(C(c3ccc(Cl)cc3Cl)N3CCC(NCCOC)CC3)ccc2[nH]c1=O` (stereo not drawn) [Compound 66], 0.417 µM.
For `CCc1cc2cc(C(c3ccc(F)cc3)N3CCC(NCCOC)CC3)ccc2[nH]c1=O` (stereo not drawn) [Compound 67] the value was 0.208 µM; for `CCc1cc2cc(C(c3ccc(F)cc3F)N3CCC(NCCOC)CC3)ccc2[nH]c1=O` (stereo not drawn) [Compound 68], 0.373 µM; for `CCc1cc2cc(C(c3cc(C(F)(F)F)ccc3Cl)N3CCC(NCCOC)CC3)ccc2[nH]c1=O` (stereo not drawn) [Compound 69], 0.456 µM.
On to `CCc1cc2cc(C(c3ccc(C(F)(F)F)cc3)N3CCC(NCCOC)CC3)ccc2[nH]c1=O` (stereo not drawn) [Compound 70], for which the IC50 was 0.762 µM.
Regarding `CCc1cc2cc(C(OCCN(C)C)c3cccc(Cl)c3)ccc2[nH]c1=O` (stereo not drawn) [Compound 71], the IC50 is 0.177 µM.
With `CCc1cc2cc(C(c3c(Cl)cccc3Cl)N3CCC(NCCOC)CC3)ccc2[nH]c1=O` (stereo not drawn) [Compound 73], the IC50 is 0.124 µM.
For the compound `CCc1cc2cc(C(c3ccccc3Cl)N3CCC(NCCOC)CC3)ccc2[nH]c1=O` (stereo not drawn) [Compound 74], the IC50 is 0.211 µM.
For `CCc1cc2cc(C(c3cccc(Cl)c3)N3CCN(C)CC3)ccc2[nH]c1=O` (stereo not drawn) [Compound 75], the IC50 was 0.339 µM.
In the case of `CCc1cc2cc(C(c3cccc4ccccc34)N3CCC(NCCOC)CC3)ccc2[nH]c1=O` (stereo not drawn) [Compound 76], the IC50 is 0.411 µM.
With `CCc1cc2cc(C(c3ccccc3C)N3CCC(NCCOC)CC3)ccc2[nH]c1=O` (stereo not drawn) [Compound 82], the IC50 was 0.356 µM.
`CCc1cc2cc(C(c3ccc(Cl)c(Cl)c3)N3CCC(NCCOC)CC3)ccc2[nH]c1=O` (stereo not drawn) [Compound 83]: the IC50 is 0.498 µM.
As to `CCc1nc2cc(C(c3ccccc3)N3CCC(=O)CC3)ccc2[nH]c1=O` (stereo not drawn) [Compound 84], the IC50 was 0.318 µM.
As to `CCc1cc2cc(C(CCN(C)C)c3ccc4c(c3)OCCO4)ccc2[nH]c1=O` (stereo not drawn) [Compound 90], the IC50 was 0.00843 µM.
Consider `O=CNC(c1cccc(C(F)(F)F)c1)c1ccc2[nH]c(=O)c3ccccc3c2c1` (stereo not drawn) [Compound 97], for which the IC50 is 0.031 µM.
Turning to `CCc1nc2cc(CC(O)c3ccccc3)ccc2[nH]c1=O` (stereo not drawn) [Compound 108], the IC50 was 0.406 µM.
Consider `CCc1nc2cc(CC(=O)c3ccccc3)ccc2[nH]c1=O` [Compound 116], for which the IC50 was 0.564 µM.
`CCc1nc2cc(CC(c3ccc(Cl)cc3)N3CCN(C4CCCCC4)CC3)ccc2[nH]c1=O` (stereo not drawn) [Compound 117]: the IC50 was 0.71 µM.
